Key:
Trypanosoma cruzi = experiment: Antiparasitic activity against amastigotes of Trypanosoma cruzi; type: functional, organism-based
Leishmania donovani = experiment: Antiparasitic activity against axenic amastigotes of Leishmania donovani; type: functional, organism-based
[1] = test system: Trypanosoma brucei rhodesiense; experiment: Antiparasitic activity against blood stream form of Trypanosoma brucei rhodesiense; type: functional, organism-based
[2] = Cytotoxicity against rat L6 cells; type: cell-based; conditions: read-out: TD50 (the source's name)

Compound | EC50 (Trypanosoma cruzi) | EC50 (Leishmania donovani) | EC50 [1] | CC50 [2]
COC(=O)CCCNCCc1ccc(NC(=O)c2ccc(COC(C)=O)cc2)cc1 | 141 µM | 73 µM | 11.5 µM | > 218 µM
COC(=O)CCCNCc1ccc(NC(=O)c2ccc(COC(C)=O)cc2)cc1 | 207 µM | 2.6 µM | 78 µM | 161 µM
CC(=O)OCc1ccc(NC(=O)N2CCC(CO)C2)cc1 (centres undefined) | > 308 µM | 26 µM | 52 µM | > 308 µM
COC(=O)CCCNCC1CCN(C(=O)Nc2ccc(COC(C)=O)cc2)C1 (centres undefined) | > 230 µM | 80 µM | 40 µM | > 230 µM
CC(=O)OCc1ccc(NC(=O)N2CCC(CN3CCCC3=O)C2)cc1 (centres undefined) | 181 µM | 30 µM | 43 µM | > 250 µM
COC(=O)CCCCCNCC1CCN(C(=O)Nc2ccc(COC(C)=O)cc2)C1 (centres undefined) | > 215 µM | 41 µM | 76 µM | > 214 µM

Reference: ChEMBL document CHEMBL1250554, “Design and preparation of sterol mimetics as potential antiparasitics” (Bioorg Med Chem, 2010)
